Tested on: KRAS PDC multicell spheroid viability
Test: Anticancer human tumor 521955-158-R6-J3-PDC patient-derived pancreatic carcinoma cell line growth inhibition [KRAS2]
Conditions: for IC50: curve of first compound; for viability, T/C: stronger effect = lower value
Source text: Multicellular complex tumor spheroid response to RAS pathway inhibitors in combination with a targeted agents in patient-derived cell lines with oncogenic KRAS variants from multiple cancer types
A high-throughput screen of multi-cell type tumor spheroids was designed to identify active combinations of targeted small molecules and KRAS pathway inhibitors. Complex spheroids include a stromal component modeled by human endothelial cells (HUVEC) and fibroblasts modeled by human mesenchymal stem cells (MSCs). The concentration ranges selected for each drug and investigational agent were based upon clinically achievable concentrations if the clinical Cmax of the agent was known.
Compounds. The drugs and investigational agents: BI-3406 (NSC825286), BAY-293 (NSC824723), batoprotafib (TNO155; NSC825523), sotorasib (AMG 510; NSC818433), MRTX1257 (NSC819558), elimusertib (BAY 1895344; NSC800525), molibresib (GSK525762; NSC774829), temuterkib (LY3214996; NSC803410), venetoclax (NSC766270), alisertib (NSC759677), olaparib (NSC753686), talazoparib (NSC767125), erdafitinib (NSC781556), ipatasertib (NSC767898), cabozantinib (NSC761068), nintedanib (NSC756659), abemaciclib (NSC768073), docetaxel (NSC628503), trametinib (NSC758246), and sapanisertib (NSC764658) were obtained from the National Cancer Institute (NCI) Developmental Therapeutics Program Chemical Repository. The FDA-approved anticancer drug set is available from the Developmental Therapeutics Program. […] The stock solutions were prepared in dimethyl sulfoxide (DMSO, Sigma-Aldrich, St. Louis, MO, cat. D2650) at 800-fold the tested concentration and stored at -70 degrees C prior to their use. All drugs and investigational agents were tested over a range starting from a high concentration at or near the clinical Cmax and decreasing in half-log increments. If the clinical Cmax for an agent had not been determined, the highest concentration tested was 10 microM.
Cell Culture. All cells were maintained in an incubator at 37 degrees C and 5% CO2 with 95% humidity. The PDC lines were cultured according to standard operating procedures established by the NCI PDMR (https://pdmr.cancer.gov/sops/default.htm). Briefly, all PDCs were thawed and cultured in Matrigel-coated flasks prepared with a working solution of 1X Ham's F-12 nutrient mix, without supplementation (Invitrogen, Waltham, MA, cat. 11765054), 100 U/mL penicillin-streptomycin (Invitrogen, cat. 15140122), and 2.5% Matrigel (Corning Inc., Corning, NY, cat. 354248) for the first three passages. All PDCs were cultured in complete DMEM/F-12 media containing advanced DMEM/F-12 (Invitrogen, cat. 12634028), 4.9% defined fetal bovine serum, heat inactivated (HyClone Laboratories Inc., Logan, UT, cat. SH30070.03HI), 389 ng/mL hydrocortisone (Sigma-Aldrich, cat. H4001), 9.7 ng/mL human EGF recombinant protein (Invitrogen, cat. PHG0313), 23.4 microg/mL adenine (Sigma-Aldrich, cat. A2786), 97.3 U/mL penicillin-streptomycin (Invitrogen, cat. 15140122), 1.9 mM L-glutamine (Invitrogen, cat. 25030081), and 9.7 microM Y-27632 dihydrochloride (Tocris Bioscience, Bristol, United Kingdom, cat. 1254). The PDCs were cultured in complete DMEM/F12 media without 9.7 microM Y-27632 dihydrochloride for at least two passages prior to the screen. The established cell line HOP-62 was cultured in RPMI 1640 medium, HEPES (Invitrogen, cat. 22400105) with 10% defined fetal bovine serum (HyClone Laboratories Inc., cat. SH30070.03) and 2 mM L-glutamine (Invitrogen, cat. 25030081). The pooled donor HUVEC were cultured in endothelial cell growth medium 2 (PromoCell, Heidelberg, Germany, cat. C-22011) and the hMSC were cultured in mesenchymal stem cell growth medium 2 (PromoCell, cat. C-28009). For all experiments, HUVEC and hMSC were used at passages </=5, while the malignant cell lines were used at passages </=15. […]
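Further: drug exposure lasted seven days.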
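Wherever viability, T/C is given: 100% = DMSO vehicle wells and lower means fewer viable cells.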

CC(C)NCC(C(=O)N1CCN(c2ncnc3c2C(C)CC3O)CC1)c1ccc(Cl)cc1 (stereo not given) + C=CC(=O)N1CCN(c2nc(=O)n(-c3c(C)ccnc3C(C)C)c3nc(-c4c(O)cccc4F)c(F)cc23)C(C)C1
IC50 (second compound 0.1 µM): > 10 µM | IC50 (second compound 0.316 µM): > 10 µM | IC50 (second compound 1 µM): > 10 µM | IC50 (second compound 3.16 µM): > 10 µM | IC50 (second compound 10 µM): 0.683 µM | viability, T/C (second compound 0.1 µM, first compound 0.0316 µM): 90.8% | viability, T/C (second compound 0.1 µM, first compound 0.1 µM): 90.4% | viability, T/C (second compound 0.1 µM, first compound 0.316 µM): 74.5% | viability, T/C (second compound 0.1 µM, first compound 1 µM): 76.2% | viability, T/C (second compound 0.1 µM, first compound 3.16 µM): 79.5% | viability, T/C (second compound 0.1 µM, first compound 10 µM): 65.7% | viability, T/C (second compound 0.316 µM, first compound 0.0316 µM): 94.4% | viability, T/C (second compound 0.316 µM, first compound 0.1 µM): 89% | viability, T/C (second compound 0.316 µM, first compound 0.316 µM): 72.5% | viability, T/C (second compound 0.316 µM, first compound 1 µM): 81.3% | viability, T/C (second compound 0.316 µM, first compound 3.16 µM): 79.8% | viability, T/C (second compound 0.316 µM, first compound 10 µM): 58.6% | viability, T/C (second compound 1 µM, first compound 0.0316 µM): 93.5% | viability, T/C (second compound 1 µM, first compound 0.1 µM): 83.4% | viability, T/C (second compound 1 µM, first compound 0.316 µM): 75.8% | viability, T/C (second compound 1 µM, first compound 1 µM): 69.7% | viability, T/C (second compound 1 µM, first compound 3.16 µM): 66.9% | viability, T/C (second compound 1 µM, first compound 10 µM): 65.5% | viability, T/C (second compound 3.16 µM, first compound 0.0316 µM): 85.7% | viability, T/C (second compound 3.16 µM, first compound 0.1 µM): 72% | viability, T/C (second compound 3.16 µM, first compound 0.316 µM): 66.5% | viability, T/C (second compound 3.16 µM, first compound 1 µM): 64.9% | viability, T/C (second compound 3.16 µM, first compound 3.16 µM): 57.4% | viability, T/C (second compound 3.16 µM, first compound 10 µM): 57.4% | viability, T/C (second compound 10 µM, first compound 0.0316 µM): 75.3% | viability, T/C (second compound 10 µM, first compound 0.1 µM): 63.2% | viability, T/C (second compound 10 µM, first compound 0.316 µM): 54.6% | viability, T/C (second compound 10 µM, first compound 1 µM): 43.3% | viability, T/C (second compound 10 µM, first compound 3.16 µM): 50.3% | viability, T/C (second compound 10 µM, first compound 10 µM): 43.7%

Reference: PubChem BioAssay AID1963864 (Molecular Pharmacology Branch, DTP, NCI, 2024)
